Test results from patent US8609715B2, “Heteroarylcarboxylic acid ester derivative” (Ajinomoto Co., Inc., priority 2009, dated 2013).
pKi: −log10 of the molar value. Structures can show the parent of a compound that is named as a salt.

Target: recombinant human enteropeptidase (Homo sapiens (Human), UniProt P98073)
Experiment: Measurement of enteropeptidase inhibitory activity
Assay type: biochemical
Conditions: Dixon plot
Method: Measurement of Enteropeptidase Inhibitory Activity
Using a 96 well plate (#3915, Costar), a test compound (25 μL), 400 mM Tris-HCl buffer (pH 8.0, 25 μL) and 0.5 mg/mL fluorescence enzyme substrate (Gly-Asp-Asp-Asp-Asp-Lys-β-Naphtylamide, 25 μL) were mixed, and recombinant human enteropeptidase (R&D Systems, Inc., 25 μL) was added. Using a fluorescence plate reader fmax (Molecular Devices, Inc.), the reaction rate was measured from the time-course changes at excitation wavelength 320 nm and fluorescence wavelength 405 nm. The Ki value was calculated from the concentration of the test compound, reciprocal of reaction rate, and Km value of the enzyme substrate, and by using Dixon plot.

Chain of recombinant human enteropeptidase (P98073 whole entry): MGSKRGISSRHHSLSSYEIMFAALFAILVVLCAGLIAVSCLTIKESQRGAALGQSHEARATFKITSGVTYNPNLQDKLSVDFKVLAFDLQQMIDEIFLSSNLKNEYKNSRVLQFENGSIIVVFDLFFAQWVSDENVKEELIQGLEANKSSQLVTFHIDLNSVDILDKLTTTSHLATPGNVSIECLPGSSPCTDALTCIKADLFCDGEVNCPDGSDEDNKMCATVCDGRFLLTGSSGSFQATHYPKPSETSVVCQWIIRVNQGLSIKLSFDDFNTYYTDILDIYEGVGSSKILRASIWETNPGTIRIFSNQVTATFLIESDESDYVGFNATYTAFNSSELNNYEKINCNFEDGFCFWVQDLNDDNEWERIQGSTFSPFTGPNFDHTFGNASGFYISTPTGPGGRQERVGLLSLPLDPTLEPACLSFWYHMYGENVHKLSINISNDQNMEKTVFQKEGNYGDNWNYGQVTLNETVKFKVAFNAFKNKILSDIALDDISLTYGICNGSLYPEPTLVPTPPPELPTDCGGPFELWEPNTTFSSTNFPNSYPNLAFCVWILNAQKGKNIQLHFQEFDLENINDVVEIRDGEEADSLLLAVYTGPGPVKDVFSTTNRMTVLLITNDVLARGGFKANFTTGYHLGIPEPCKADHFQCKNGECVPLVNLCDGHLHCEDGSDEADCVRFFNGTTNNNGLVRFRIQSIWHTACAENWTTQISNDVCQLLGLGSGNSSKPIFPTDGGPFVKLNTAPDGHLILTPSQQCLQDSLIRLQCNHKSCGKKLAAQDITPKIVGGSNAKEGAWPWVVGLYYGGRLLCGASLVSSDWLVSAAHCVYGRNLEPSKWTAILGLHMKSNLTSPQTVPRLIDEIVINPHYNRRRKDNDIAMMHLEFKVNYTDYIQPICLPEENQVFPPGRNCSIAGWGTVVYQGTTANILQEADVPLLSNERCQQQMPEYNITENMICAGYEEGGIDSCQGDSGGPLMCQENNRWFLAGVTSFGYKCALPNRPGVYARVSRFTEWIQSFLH

Row | pKi | SMILES
1 | 9.38 | N=C(N)c1ccc(OC(=O)c2ccc(CC(CCC(=O)O)C(=O)N[C@@H](CC(=O)O)C(=O)O)o2)cc1 (stereo partly drawn) [Compound A-61, N-{3-[5-(4-amidinophenoxycarbonyl)-furan-2-yl]-2-(carboxyethyl)propanoyl}-L-aspartic acid trifluoroacetic acid salt]
2 | 8.68 | CC(Cc1cc(C(=O)Oc2ccc(C(=N)N)cc2)co1)C(=O)N[C@@H](CC(=O)O)C(=O)O (stereo partly drawn) [Compound A-62, N-{3-[4-(4-amidinophenoxycarbonyl)-furan-2-yl]-2-methylpropanoyl}-L-aspartic acid trifluoroacetic acid salt]
3 | 9.28 | CC(Cc1cc(C(=O)Oc2ccc(C(=N)N)cc2F)co1)C(=O)O (stereo not shown) [Compound A-63, 3-[4-(4-amidino-2-fluorophenoxycarbonyl)furan-2-yl]-2-methylpropanoic acid trifluoroacetic acid salt]
4 | 8.60 | CC(Cc1cc(C(=O)Oc2ccc(C(=N)N)cc2)co1)C(=O)NCP(=O)(O)O (stereo not shown) [Compound A-64]
5 | 9.00 | CC(Cc1cc(C(=O)Oc2ccc(C(=N)N)cc2)co1)C(=O)N[C@@H](CS(=O)(=O)O)C(=O)O (stereo partly shown) [Compound A-65]
6 | 9.49 | CC(Cc1cc(C(=O)Oc2ccc(C(=N)N)cc2F)co1)C(=O)N[C@@H](CC(=O)O)C(=O)O (stereo partly shown) [Compound A-66]
7 | 9.28 | CC(Cc1coc(C(=O)Oc2ccc(C(=N)N)cc2)c1)C(=O)N[C@@H](CC(=O)O)C(=O)O (stereo partly drawn) [Compound A-67, N-[3-[2-(4-amidinophenoxycarbonyl)-furan-4-yl]-2-methylpropanoyl]-L-aspartic acid trifluoroacetic acid salt]
8 | 8.66 | N=C(N)c1ccc(OC(=O)c2ccc(-c3ccc(C(=O)N[C@@H](CC(=O)O)C(=O)O)cc3)o2)cc1 [Compound A-68, N-{4-[5-(4-amidinophenoxycarbonyl)-furan-2-yl]benzoyl}-L-aspartic acid trifluoroacetic acid salt]
9 | 8.33 | N=C(N)c1ccc(OC(=O)c2ccc(-c3ccc(C(=O)NCC(=O)O)cc3)o2)cc1 [Compound A-69]
10 | 8.57 | N=C(N)c1ccc(OC(=O)c2ccc(-c3ccc(C(=O)NCP(=O)(O)O)cc3)o2)cc1 [Compound A-70]
11 | 8.80 | N=C(N)c1ccc(OC(=O)c2ccc(-c3cccc(C(=O)N[C@@H](CC(=O)O)C(=O)O)c3)o2)cc1 [Compound A-71, N-{3-[5-(4-amidinophenoxycarbonyl)-furan-2-yl]benzoyl}-L-aspartic acid trifluoroacetic acid salt]
12 | 9.06 | CC(Cc1ccc(C(=O)Oc2ccc(C(=N)N)cc2)o1)C(=O)SC(CC(=O)O)C(=O)O (stereo not drawn) [Compound A-73, S-{3-[5-(4-amidinophenoxycarbonyl)-furan-2-yl]-2-methylpropionyl}thiomalic acid trifluoroacetic acid salt]
13 | 8.59 | CC(Cc1ccc(C(=O)Oc2ccc(C(=N)N)cc2)o1)C(=O)NN(CC(=O)O)CC(=O)O (stereo not shown) [Compound A-74, (N′-carboxymethyl-{3-[5-(4-amidinophenoxycarbonyl)furan-2-yl]-2-methylpropane}hydrazido)-acetic acid trifluoroacetic acid salt]
14 | 8.03 | C/C(=C\c1ccc(C(=O)Oc2ccc(C(=N)N)cc2)s1)C(=O)NCC(=O)O [Compound B-2]
15 | 8.24 | C/C(=C\c1ccc(C(=O)Oc2ccc(C(=N)N)cc2)s1)C(=O)N[C@@H](CO)C(=O)O [Compound B-3]
16 | 8.84 | CC(Cc1ccc(C(=O)Oc2ccc(C(=N)N)cc2)s1)C(=O)O (stereo not shown) [Compound B-6, 3-[5-(4-amidinophenoxycarbonyl)-thiophen-2-yl]-2-methylpropanoic acid trifluoroacetic acid salt]
17 | 8.67 | C/C(=C\c1ccc(C(=O)Oc2ccc(C(=N)N)cc2)s1)C(=O)N(CCCO)CCS(=O)(=O)O [Compound B-7, N-{(2E)-3-[5-(4-amidinophenoxycarbonyl)thiophen-2-yl]-2-methylpropenoyl}-N-hydroxypropyltaurine trifluoroacetic acid salt]
18 | 9.08 | C/C(=C\c1ccc(C(=O)Oc2ccc(C(=N)N)cc2[N+](=O)[O-])s1)C(=O)O [Compound B-8]
19 | 8.85 | CC(Cc1ccc(C(=O)Oc2ccc(C(=N)N)cc2[N+](=O)[O-])s1)C(=O)N(CCCO)CC(=O)O (stereo not shown) [Compound B-11, N-{3-[5-(4-amidino-2-nitrophenoxycarbonyl)thiophen-2-yl]-2-methylpropanoyl}-N-(3-hydroxypropyl)glycine hydrochloride]
20 | 8.66 | CC(Cc1ccc(C(=O)Oc2ccc(C(=N)N)cc2)s1)C(=O)NCC(=O)O (stereo not shown) [Compound B-12]
21 | 9.54 | CC(Cc1ccc(C(=O)Oc2ccc(C(=N)N)cc2Br)s1)C(=O)O (stereo not shown) [Compound B-16, 3-[5-(4-amidino-2-bromophenoxycarbonyl)thiophen-2-yl]-2-methylpropionic acid trifluoroacetic acid salt]
22 | 9.38 | CC(Cc1ccc(C(=O)Oc2ccc(C(=N)N)cc2Cl)s1)C(=O)O (stereo not shown) [Compound B-17]
23 | 9.38 | CC(Cc1ccc(C(=O)Oc2ccc(C(=N)N)cc2F)s1)C(=O)O (stereo not shown) [Compound B-19]
24 | 9.55 | CC(Cc1ccc(C(=O)Oc2ccc(C(=N)N)cc2F)s1)C(=O)N[C@@H](CC(=O)O)C(=O)O (stereo partly shown) [Compound B-20]
25 | 9.25 | CC(Cc1ccc(C(=O)Oc2ccc(C(=N)N)cc2F)s1)C(=O)N[C@@H](CCC(=O)O)C(=O)O (stereo partly shown) [Compound B-21]

Row | pKi | SMILES
26 | 9.30 | CC(Cc1ccc(C(=O)Oc2ccc(C(=N)N)cc2F)s1)C(=O)N[C@H](CC(=O)O)C(=O)O (stereo partly shown) [Compound B-22]
27 | 9.31 | CC(Cc1ccc(C(=O)Oc2ccc(C(=N)N)c(F)c2)s1)C(=O)O (stereo not shown) [Compound B-24]
28 | 9.10 | C[C@H](Cc1ccc(C(=O)Oc2ccc(C(=N)N)cc2F)s1)C(=O)N[C@@H](CC(=O)O)C(=O)O [Compound B-25, N-{3-[5-(4-amidino-2-fluorophenoxycarbonyl)thiophen-2-yl]-2R-methylpropionyl}-L-aspartic acid trifluoroacetic acid salt]
29 | 8.66 | CC(C)C[C@H](Cc1ccc(C(=O)Oc2ccc(C(=N)N)cc2F)s1)C(=O)N[C@@H](CC(=O)O)C(=O)O [Compound B-26, N-{3-[5-(4-amidino-2-fluorophenoxycarbonyl)thiophen-2-yl]-2R-isobutylpropionyl}-L-aspartic acid trifluoroacetic acid salt]
30 | 9.02 | CC(C)C[C@@H](Cc1ccc(C(=O)Oc2ccc(C(=N)N)cc2F)s1)C(=O)N[C@@H](CC(=O)O)C(=O)O [Compound B-27]
31 | 8.96 | CCC[C@H](Cc1ccc(C(=O)Oc2ccc(C(=N)N)cc2F)s1)C(=O)N[C@@H](CC(=O)O)C(=O)O [Compound B-28]
32 | 9.24 | CCC[C@@H](Cc1ccc(C(=O)Oc2ccc(C(=N)N)cc2F)s1)C(=O)N[C@@H](CC(=O)O)C(=O)O [Compound B-29]
33 | 9.28 | CC(Cc1ccc(C(=O)Oc2ccc(C(=N)N)c(F)c2)s1)C(=O)N[C@@H](CC(=O)O)C(=O)O (stereo partly shown) [Compound B-30]
34 | 9.51 | N=C(N)c1ccc(OC(=O)c2ccc(CCC(=O)N[C@@H](CC(=O)O)C(=O)O)s2)c(F)c1 [Compound B-32, N-{3-[5-(4-amidino-2-fluorophenoxycarbonyl)thiophen-2-yl]propanoyl}-L-aspartic acid trifluoroacetic acid salt]
35 | 8.55 | CCCC(Cc1ccc(C(=O)Oc2ccc(C(=N)N)cc2)s1)C(=O)N[C@@H](CC(=O)O)C(=O)O (stereo partly shown) [Compound B-33]
36 | 8.66 | CC(Cc1ccc(C(=O)Oc2ccc(C(=N)N)cc2F)s1)C(=O)N1CCCC(C(=O)O)C1 (stereo not shown) [Compound B-34]
37 | 9.40 | CC(Cc1ccc(C(=O)Oc2ccc(C(=N)N)cc2F)s1)C(=O)N[C@@H](CO)C(=O)O (stereo partly shown) [Compound B-35]
38 | 9.29 | N=C(N)c1ccc(OC(=O)c2ccc(CCC(=O)N[C@H](CC(=O)O)C(=O)O)s2)c(F)c1 [Compound B-36]
39 | 9.30 | N=C(N)c1ccc(OC(=O)c2ccc(CCC(=O)N(CCC(=O)O)CC(=O)O)s2)c(F)c1 [Compound B-37]
40 | 9.12 | C=CCN(CC(=O)O)C(=O)CCc1ccc(C(=O)Oc2ccc(C(=N)N)cc2F)s1 [Compound B-38, N-{3-[5-(4-amidino-2-fluorophenoxycarbonyl)thiophen-2-yl]propionyl}-N-allylglycine trifluoroacetic acid salt]
41 | 9.02 | CC(Cc1ccc(C(=O)Oc2ccc(C(=N)N)cc2)s1)C(=O)N[C@@H](CS(=O)(=O)O)C(=O)O (stereo partly drawn) [Compound B-39, N-{3-[5-(4-amidinophenoxycarbonyl)-thiophen-2-yl]-2-methylpropanoyl}-L-cysteic acid trifluoroacetic acid salt]
42 | 8.70 | CC(Cc1ccc(C(=O)Oc2ccc(C(=N)N)cc2)s1)C(=O)NCP(=O)(O)O (stereo not shown) [Compound B-40, N-{3-[5-(4-amidinophenoxycarbonyl)-thiophen-2-yl]-2-methylpropanoyl}aminomethylphosphonic acid trifluoroacetic acid salt]
43 | 9.57 | CC(Cc1ccc(C(=O)Oc2ccc(C(=N)N)cc2F)s1)C(=O)N[C@@H](CS(=O)(=O)O)C(=O)O (stereo partly shown) [Compound B-41]
44 | 9.43 | CC(Cc1ccc(C(=O)Oc2ccc(C(=N)N)cc2F)s1)C(=O)NCP(=O)(O)O (stereo not shown) [Compound B-42]
45 | 9.38 | CC(Cc1ccc(C(=O)Oc2ccc(C(=N)N)cc2Cl)s1)C(=O)NCP(=O)(O)O (stereo not shown) [Compound B-43]
46 | 9.68 | CC(Cc1ccc(C(=O)Oc2ccc(C(=N)N)cc2Cl)s1)C(=O)N[C@@H](CS(=O)(=O)O)C(=O)O (stereo partly shown) [Compound B-44]
47 | 8.60 | CC(CCC(=O)O)Cc1ccc(C(=O)Oc2ccc(C(=N)N)cc2)s1 (stereo not shown) [Compound B-47]
48 | 9.06 | CC(CCC(=O)O)Cc1ccc(C(=O)Oc2ccc(C(=N)N)cc2F)s1 (stereo not shown) [Compound B-48]
49 | 9.39 | CC(CCC(=O)N[C@@H](CC(=O)O)C(=O)O)Cc1ccc(C(=O)Oc2ccc(C(=N)N)cc2F)s1 (stereo partly shown) [Compound B-49]
